Measured values reported in patent US7319029B2, “Lipase from Geobacillus sp. strain T1” (Universiti Purta Malaysia, priority 2004, dated 2008).
Where a SMILES comes first, the peptide text is derived from it. [ ]: non-standard residue; d: D form. The star is where a group is joined. Sta = CC(C)C[C@H](N)[C@@H](O)CC(=O)O; Isovaleryl = CC(C)CC(=O)*

Tests used:
T1 mature lipase [1] = assay: Effect of metal ions, surfactants and inhibitors on lipase activity; assay type: biochemical, Geobacillus sp. strain T1; conditions: 1 mM, 50° C., after 15 min of treatment
T1 mature lipase [2] = assay: as above; assay type: biochemical, Geobacillus sp. strain T1; conditions: for Effect of metal ion on lipase activity: 1 mM, after 30 min of treatment; for Effect of metal ion on lipase activity / Effect of inhibitor on lipase activity / Inhibition of lipase activity: 50° C.; for Effect of inhibitor on lipase activity: 5 mM (Pepstatin 1 mM), 30 min; for Effect of surfactant on lipase activity: 0.1%; for Inhibition of lipase activity: metal ion 1 mM, after 30 min
Procedure: The T1 lipase was tested at temperatures ranging from 40° C. to 80° C. at 5° C. intervals for 30 min for enzyme activity. The thermostability test was conducted at various temperatures for different hours. Recombinant T1 lipase was also kept at a wide range of pH values ranging from pH 4-12 for pH activity and stability determination. The buffer systems used were 50 mM acetate buffer (pH 4-6), potassium phosphate buffer (pH 6-8), Tris-HCl buffer (pH 8-9), glycine-NaOH buffer (pH 9-11), and Na2HPO3/NaOH buffer (pH 11-12). The effect of effectors (metal ions, surfactants) and inhibitors were studied at a concentration of 1 mM and 5 mM, respectively at 50° C. for 30 min with an exceptional for pepstatin (1.0 mM).
The effect of metal ion at final concentration of 1 mM was tested by treatment at 50° C. for 30 min. […] The effect of surfactants on lipase activity on lipase activity was studied at concentration of 0.1% (FIG. 6).
The effect of inhibitors on lipase activity on several metal chelating agent, reducing agents, serine and aspartate inhibitors were used to study the inhibition effect to T1 mature lipase.

P1 lipase = conditions: 10 mM of PMSF; cited from earlier work

| Compound | Effect of metal ion on lipase activity (T1 mature lipase [2]) | Effect of inhibitor on lipase activity (T1 mature lipase [2]) | also measured |
| --- | --- | --- | --- |
| [Na+] [Na^+] | – | – | Effect of metal ion on lipase activity (T1 mature lipase [1]): slightly enhanced |
| [Mg+2] [Mg^2+] | stabilizing effect | – | – |
| [K+] [K^+] | stabilizing effect | – | Effect of metal ion on lipase activity (T1 mature lipase [1]): slightly enhanced |
| O=S(=O)(F)Cc1ccccc1 [PMSF] | – | strongly inhibited | Inhibition of P1 lipase (P1 lipase): 77% |
| CC(C)CC(=O)N[C@H](C(=O)N[C@H](C(=O)N[C@@H](CC(C)C)[C@@H](O)CC(=O)N[C@@H](C)C(=O)N[C@@H](CC(C)C)[C@@H](O)CC(=O)O)C(C)C)C(C)C [Pepstatin] (Isovaleryl-VV[Sta]A[Sta]-OH) | – | strongly inhibited | – |
| Tween | – | – | Effect of surfactant on lipase activity (T1 mature lipase [2]): obvious enhancement; Effect of surfactant on lipase activity (T1 mature lipase [2]; listed as Tween 20-80): enhancement effect |
| [Ca+2] [Ca^2+] | stabilizing effect | – | – |
| [Fe+2] [Fe^2+] | – | – | Inhibition of lipase activity (T1 mature lipase [2]): 60% |
| [Zn+2] [Zn^2+] | stabilizing effect | – | – |
| O=C(O)CN(CCN(CC(=O)O)CC(=O)O)CC(=O)O [EDTA] | – | slightly effect | – |
| [Cu+2] [Cu^2+] | – | – | Inhibition of lipase activity (T1 mature lipase [2]): 52% |
| [Mn+2] [Mn^2+] | stabilizing effect | – | Effect of metal ion on lipase activity (T1 mature lipase [1]): slightly enhanced |
| O[C@@H](CS)[C@@H](O)CS [DTT] | – | little inhibition effect | – |
| OCCS [β-mercaptoethanol] | – | little inhibition effect | – |
